Source: patent US20110269699A1, “CANCER THERAPY” (priority 2008, published 2011)
Several values for one entry are separate records, joined by “and”; a condition that tells them apart may be missing. Equal entries are not always repeated.

Tests used:
Eμ-myc lymphomas [1] = assay: In vitro cell death analysis (propidium iodide staining, loss of MOMP); type: cell-based, mouse
Procedure: (§1) Three different primary Eμ-myc lymphomas overexpressing Bcl-2 and control vector-transduced Eμ-myc cells were tested for sensitivity to the histone deacetylase inhibitors (HDACi) oxamflatin and romidepsin.
(§2) The primary function of prosurvival Bcl-2 proteins is to inhibit the activity of Bak and Bax proteins and thereby protect the mitochondrial membrane from damage (Cory et al., Nat. Rev. Cancer 2:647-656, 2002). To determine if the induction of apoptosis mediated by romidepsin in 4242Eμ-myc/Bcl-2 and 229Eμ-myc/Bcl-2 lymphomas was via perturbation of the mitochondrial membrane or through some other mechanism, HDACi-induced mitochondrial outer membrane permeabilization (MOMP) was quantitated by staining with tetramethylrhodamine ethyl ester (Molecular Probes).
(§3) […] Viability of cells as measured by trypan blue exclusion assay, propidium iodide uptake, Annexin V staining, cell cycle analysis, or tetramethylrhodamine ethyl ester staining were done as described (Lindemann et al., Proc. Nat. Acad. Sci. USA 104:8071-8078, 2007).

Eμ-myc/Bcl-2 lymphomas = assay: as above; type: cell-based, mouse; settings: 24-h dose-response assay; Bcl-2 overexpressing
Procedure: as §1, §2, §3

[2] = system: 229Eμ-myc/Bcl-2 lymphomas; assay: In vitro cell death analysis, time course; type: cell-based, mouse
Text: as §2
Next, the cell cycle profiles of Eμ-myc/Bcl-2 lymphomas treated with oxamflatin and romidepsin over 3 days were assessed.
Eμ-myc lymphoma cells (5×10^5/mL) were incubated in the presence of the indicated compounds for 20 h in 1 mL cell culture medium in 24-well plates (Greiner Bio-One). Viability of cells as measured by trypan blue exclusion assay, propidium iodide uptake, Annexin V staining, cell cycle analysis, or tetramethylrhodamine ethyl ester staining were done as described (Lindemann et al., Proc. Nat. Acad. Sci. USA 104:8071-8078, 2007).

[3] = system: 226Eμ-myc/Bcl-2 lymphomas; assay: In vitro cell death analysis, time course; type: cell-based, mouse; settings: 3.0 nmol/L; up to 72 h
[4] = system: 102Eμ-myc/Bcl-2 lymphomas; assay: In vitro cell death analysis, time course; type: cell-based, mouse; settings: 3.0 nmol/L; up to 72 h
[5] = system: 4242Eμ-myc/Bcl-XL lymphomas; assay: In vitro cell death analysis of Bcl-XL overexpressing lymphomas; type: cell-based, mouse
Text: To determine if increased expression of Bcl-XL could confer resistance to romidepsin, 4242Eμ-myc/Bcl-XL lymphomas were produced and tested for sensitivity to HDACi.
as §3

[6] = system: 102Eμ-myc/Bcl-2 lymphomas; assay: In vivo therapy assay (Kaplan-Meier survival); design: species or system C57BL/6 mice; settings: 5.6 mg/kg i.v. every 4 d, four doses
Procedure: (§4) FIG. 4. […] C57BL/6 mice (10 mice per group) bearing (FIG. 4A) 4242Eμ-myc, (FIG. 4B) 229Eμ-myc, (FIG. 4C) 226Eμ-myc, (FIG. 4D) 102Eμ-myc, (FIG. 4E) 4242Eμ-myc/Bcl-2, (FIG. 4F) 229Eμmyc/Bcl-2, (FIG. 4G) 226Eμ-myc/Bcl-2, and (FIG. 4H) 102Eμ-myc/Bcl-2, lymphomas were treated with romidepsin or vehicle. Therapy commenced after WBC counts reached ≧13×10^3/μL. Therapy consisted of either 5.6 mg/kg romidepsin (injected i.v. every 4 d for a total of four doses) or vehicle.
(§5) For therapy experiments, Eμ-myc lymphomas were transplanted into C57BL/6 mice and treatment with romidepsin or vehicle commenced when WBC counts in the peripheral blood reached a pathologic threshold (>13×10^3/μL).
(§6) For in vivo apoptosis assays, C57BL/6 mice were injected with Eμ-myc lymphomas (5×10^5 cells per animal) and after 10 to 15 days on which lymph nodes became well-palpable romidepsin (5.6 mg/kg) was administered i.v. After the indicated time points, mice were sacrificed and cells were harvested from brachial lymph nodes for fluorescence-activated cell sorting-based assays to measure apoptotic signaling (Lindemann et al., Proc. Nat. Acad. Sci. USA 104:8071-8078, 2007). To assess therapeutic efficacy of romidepsin, C57BL/6 mice were injected with Eμ-myc lymphomas of the indicated genotypes i.v. (5×10^5 cells per animal). Peripheral WBC counts were then monitored until they exceeded 13×10^3/μL (Sysmex Hematology Analyzer K-1000) and romidepsin was administered at 5.6 mg/kg i.v. once every 4 days for a total of four injections. […] Mice in the control cohort received the corresponding amount of vehicle. Cohorts consisted of 8 to 11 mice each, 2 to 3 independently derived lymphomas per genotype. Peripheral WBC counts and body weights were recorded weekly. On signs of major distress or when lymphomas were relapsing as indicated by enlarged brachioaxial lymph nodes, mice were euthanized and a necropsy was done. For analysis of therapeutic efficacy, tumor-induced mortality “events” were recorded. Kaplan-Meier analysis was done and comparisons made using the log-rank (Mantel-Cox) test (MedCalc software version 8.0.2.0).

102Eμmyc lymphomas = assay: In vivo therapy assay (Kaplan-Meier survival); design: species or system C57BL/6 mice; settings: 5.6 mg/kg i.v. every 4 d, four doses; vehicle 14 d; P<0.0001
Procedure: as §4, §5, §6

226Eμ-myc lymphomas = assay: In vivo therapy assay (Kaplan-Meier survival); design: species or system C57BL/6 mice; settings: 5.6 mg/kg i.v. every 4 d, four doses; vehicle 15 d; P<0.0001
Procedure: as §4, §5, §6

[7] = system: 226Eμ-myc/Bcl-2 lymphomas; assay: In vivo therapy assay (Kaplan-Meier survival); design: species or system C57BL/6 mice; settings: 5.6 mg/kg i.v. every 4 d, four doses
Procedure: as §4, §5, §6

229Eμ-myc lymphomas = assay: In vivo therapy assay (Kaplan-Meier survival); design: species or system C57BL/6 mice; settings: 5.6 mg/kg i.v. every 4 d, four doses; vehicle 20 days; P<0.0001
Procedure: as §4, §5, §6

[8] = system: 229Eμ-myc/Bcl-2 lymphomas; assay: In vivo therapy assay (Kaplan-Meier survival); design: species or system C57BL/6 mice; settings: 5.6 mg/kg i.v. every 4 d, four doses
Procedure: as §4, §5, §6

4242Eμ-myc lymphomas = assay: In vivo therapy assay (Kaplan-Meier survival); design: species or system C57BL/6 mice; settings: 5.6 mg/kg i.v. every 4 d, four doses; vehicle 19 d; P<0.0003
Procedure: as §4, §5, §6

[9] = system: 4242Eμ-myc/Bcl-2 lymphomas; assay: In vivo therapy assay (Kaplan-Meier survival); design: species or system C57BL/6 mice; settings: 5.6 mg/kg i.v. every 4 d, four doses
Procedure: as §4, §5, §6

Eμ-myc lymphomas [10] = assay: In vivo therapy assay (survival); design: species or system C57BL/6 mice; settings: 5.6 mg/kg i.v. every 4 d, four doses
Procedure: as §5
For in vivo apoptosis assays, C57BL/6 mice were injected with Eμ-myc lymphomas (5×10^5 cells per animal) and after 10 to 15 days on which lymph nodes became well-palpable romidepsin (5.6 mg/kg) was administered i.v. After the indicated time points, mice were sacrificed and cells were harvested from brachial lymph nodes for fluorescence-activated cell sorting-based assays to measure apoptotic signaling (Lindemann et al., Proc. Nat. Acad. Sci. USA 104:8071-8078, 2007). To assess therapeutic efficacy of romidepsin, C57BL/6 mice were injected with Eμ-myc lymphomas of the indicated genotypes i.v. (5×10^5 cells per animal). Peripheral WBC counts were then monitored until they exceeded 13×10^3/μL (Sysmex Hematology Analyzer K-1000) and romidepsin was administered at 5.6 mg/kg i.v. once every 4 days for a total of four injections. […] Mice in the control cohort received the corresponding amount of vehicle. Cohorts consisted of 8 to 11 mice each, 2 to 3 independently derived lymphomas per genotype. Peripheral WBC counts and body weights were recorded weekly. […] For analysis of therapeutic efficacy, tumor-induced mortality “events” were recorded. […]

[11] = Maximum tolerated dose in lymphoma-bearing mice; settings: i.v. once every 4 days for a total of four injections
Procedure: For in vivo apoptosis assays, C57BL/6 mice were injected with Eμ-myc lymphomas (5×10^5 cells per animal) and after 10 to 15 days on which lymph nodes became well-palpable romidepsin (5.6 mg/kg) was administered i.v. After the indicated time points, mice were sacrificed and cells were harvested from brachial lymph nodes for fluorescence-activated cell sorting-based assays to measure apoptotic signaling (Lindemann et al., Proc. Nat. Acad. Sci. USA 104:8071-8078, 2007). To assess therapeutic efficacy of romidepsin, C57BL/6 mice were injected with Eμ-myc lymphomas of the indicated genotypes i.v. (5×10^5 cells per animal). Peripheral WBC counts were then monitored until they exceeded 13×10^3/μL (Sysmex Hematology Analyzer K-1000) and romidepsin was administered at 5.6 mg/kg i.v. once every 4 days for a total of four injections. […] Mice in the control cohort received the corresponding amount of vehicle. Cohorts consisted of 8 to 11 mice each, 2 to 3 independently derived lymphomas per genotype. Peripheral WBC counts and body weights were recorded weekly. On signs of major distress or when lymphomas were relapsing as indicated by enlarged brachioaxial lymph nodes, mice were euthanized and a necropsy was done. For analysis of therapeutic efficacy, tumor-induced mortality “events” were recorded. […]

Q: Which “cell killing (outer cell membrane damage, loss of mitochondrial membrane potential)” value (Eμ-myc lymphomas [1]; 24-h dose-response assay) does the source give for “(1S,4S,10S,16E,21R)-7-[(2Z)-ethylidene]-4,21-diisopropyl-2-oxa-12,13-dithia-5,8,20,23-tetraazabicyclo[8.7.6]tricos-16-ene-3,6,9,19,22-pentanone [Romidepsin]” here?
A: could effectively kill

Q: What about the “concentration of HDACi required to kill ˜70% of Eμ-myc lymphomas following 24-h treatment” value (Eμ-myc lymphomas [1]; 24-h treatment) of the same substance?
A: 3.0 nmol/L and 3 nmol/L

Q: What about the “cell killing (outer cell membrane damage, loss of mitochondrial membrane potential)” value (Eμ-myc/Bcl-2 lymphomas) of the same substance?
A: but not Eμ-myc/Bcl-2 lymphomas

Q: And the “cell killing in time course” value ([2]; 3.0 nmol/L, up to 72 h)?
A: could kill

Q: And the “DNA fragmentation (sub-G1) indicative of apoptosis” value ([2]; over 3 days, data not shown)?
A: increase in the percentage of cells showing DNA fragmentation

Q: And the “cell killing in time course” value [3]?
A: remained relatively insensitive

Q: And the “cell killing in time course” value [4]?
A: remained relatively insensitive

Q: And the “plasma membrane integrity and mitochondrial function” value ([5]; increasing concentrations over 24 h)?
A: unaffected

Q: And the cell cycle analysis ([5]; increasing doses)?
A: arrested in the G1 phase

Q: And the “therapeutic benefit (survival)” value [6]?
A: little or no therapeutic benefit

Q: And the median survival ([6]; vehicle 11 d, P<0.07)?
A: 14.5 days

Q: What about the median survival (102Eμmyc lymphomas) of the same substance?
A: 22 days

Q: What about the median survival (226Eμ-myc lymphomas) of the same substance?
A: 19.5 days

Q: And the “therapeutic benefit (survival)” value [7]?
A: little or no therapeutic benefit

Q: What about the median survival ([7]; vehicle 16 d, P=0.86) of the same substance?
A: 16 days

Q: What about the median survival (229Eμ-myc lymphomas) of the same substance?
A: 30 days

Q: What about the “survival of mice compared with vehicle-treated mice” value [8] of the same substance?
A: significantly extended the survival

Q: And the median survival ([8]; vehicle 18 d, P<0.0001)?
A: 30 days

Q: What about the median survival (4242Eμ-myc lymphomas) of the same substance?
A: 28 days

Q: And the “survival of mice compared with vehicle-treated mice” value [9]?
A: significantly extended the survival

Q: And the median survival ([9]; vehicle 12 d, P<0.0001)?
A: 22.5 days

Q: What about the “survival of mice compared with vehicle-treated mice” value (Eμ-myc lymphomas [10]) of the same substance?
A: significantly extended

Q: What about the maximum tolerated dose [11] of the same substance?
A: 5.6 mg/kg
